Experimental findings from PubChem BioAssay (NCI) are described below.

What all share (assay): growth of human tumour cells (NCI), 48 h
Experiment [1] relates to RXF 393 renal.
Experiment [2] has as its system CAKI-1 renal.
In experiment [3] the test system is HL-60(TB) leukemia.
For experiment [4], the system named is EKVX NSCLC.
Experiment [5] concerns OVCAR-3 ovarian.
In experiment [6] the test system is OVCAR-4 ovarian.
The test system of experiment [7] is OVCAR-8 ovarian.
In experiment [8] the test system is K-562 leukemia.
Experiment [9] relates to NCI-H23 lung.
In experiment [10] the test system is HOP-92 NSCLC.
The subject of experiment [11] is UO-31 renal.
For experiment [12], the system named is TK-10 renal.
In experiment [13] the test system is A498 renal.
Experiment [14] deals with MALME-3M melanoma.
The test system of experiment [15] is PC-3 prostate.

The structures appear in SMILES notation.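 Where inhibition never reached the appropriate level, the endpoint shown equals the highest concentration tested. Otherwise, values were interpolated linearly from a five-concentration, 48-hour dose response in 96-well plates. GI50: concentration for 50% inhibition of growth. TGI marks complete inhibition of growth.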

Regarding `COc1cc2c(c(OC)c1OC)-c1ccc(SC)cc1[C@H](OC(=O)c1ccccc1)CC2`, the TGI in experiment [1] is 0.452 µM; in [2], over 100 µM; in experiment [3], 0.487 µM; in experiment [4], over 100 µM; in experiment [5] it was over 100 µM; in experiment [6], over 100 µM. Besides, the TGI in experiment [7], in experiment [8], in experiment [9], in experiment [10], in experiment [11] and in experiment [12] was over 100 µM in each case.
Turning to `CC(=O)OCC1=C(C)C(OC(=O)C(OC(C)=O)[C@@H](NC(=O)c2ccccc2)c2ccccc2)CCC1(C)C` (some centres undefined), the TGI in experiment [1], in [2], in experiment [3], in experiment [4], in experiment [13] and in experiment [5] was over 100 µM each time. Also, the TGI in [6], in experiment [7], in experiment [8], in experiment [14], in experiment [9] and in experiment [11] was over 100 µM in each case. The TGI in [12] is over 100 µM.
For `CC1(C)CC(=O)c2c(nc3ccc4ccccc4c3c2-c2ccc(NC(=O)CCC(=O)Nc3ccc(-c4c5c(nc6ccc7ccccc7c46)CC(C)(C)CC5=O)cc3)cc2)C1`, the TGI in experiment [1], in experiment [2], in [3], in experiment [4], in [5] and in [7] was over 100 µM throughout. Besides, the TGI in experiment [8], in experiment [15], in experiment [11] and in experiment [12] was over 100 µM each time.
Take `CCN(CC)C(=S)SS(=O)(=O)c1ccc([N+](=O)[O-])cc1`: the GI50 in experiment [1] is 16 µM; in experiment [5], 35.4 µM; in experiment [6], 45.5 µM; in [12] it was 43.1 µM. Moreover, the TGI in experiment [1] is 32.1 µM; in experiment [2], 34.4 µM; in [4], over 100 µM; in [13] it was over 100 µM; in experiment [5] it was over 100 µM; in experiment [6] it was over 100 µM. For the same compound, the TGI in experiment [7] was 42.5 µM; in experiment [8] it was over 100 µM; in experiment [14], 37.9 µM; in experiment [9], over 100 µM; in experiment [11], 47 µM; in experiment [12], over 100 µM.
With `CCOc1cc(NC(C)=O)ccc1C(=O)NN1C(=O)/C(=C/c2cc(OC)c(OC)c(OC)c2)N=C1c1ccccc1`, the TGI in [2], in [3], in experiment [4], in experiment [13], in experiment [5] and in experiment [6] was over 100 µM in each case. The TGI in experiment [7], in experiment [8], in experiment [14], in experiment [9], in experiment [10] and in experiment [11] was over 100 µM each time.
On to `CCC(=O)O[C@H]1CC[C@H]2[C@@H]3CCC4=C/C(=N/NC(=O)c5cccc6c(=O)c7ccccc7[nH]c56)CC[C@]4(C)[C@H]3CC[C@]12C`, for which the TGI in experiment [1], in experiment [4], in [13], in experiment [5], in experiment [6] and in experiment [7] was over 25 µM each time. Besides, the TGI in [8], in experiment [9], in [10], in experiment [15], in [11] and in [12] was over 25 µM throughout.
In the case of `CCOC(=O)C(NC(=O)Nc1ccc(Cl)c(Cl)c1)C(F)(F)F` (centres undefined), the TGI in experiment [1], in experiment [3], in experiment [4], in experiment [13], in experiment [7] and in experiment [8] was over 100 µM throughout. In addition, the TGI in experiment [9], in experiment [15], in experiment [11] and in [12] was over 100 µM each time.
With `CC(C)=CCC/C(C)=C/CC/C(C)=C/CC/C(C)=C/CC/C(C)=C\CC/C(C)=C/CC/C(C)=C/CC/C(C)=C/Cc1cc(O)ccc1O`, the TGI in [2] was found to be 0.703 µM; in experiment [4], 8.83 µM; in experiment [13] it was 3.51 µM; in [5] it was 1.94 µM; in [6], 7.4 µM; in experiment [7], 3.42 µM. Besides, the TGI was 26.4 µM in experiment [8]; 1.96 µM in [9]; over 32.8 µM in [10]; 2.44 µM in experiment [15]; 5.71 µM in experiment [11]; over 29.4 µM in experiment [12].
As for `S=C1N=C(Cl)C2(NN1)c1ccccc1-c1ccccc12`, the TGI in experiment [2], in [3], in experiment [4], in experiment [13], in experiment [6] and in experiment [7] was over 10 µM throughout. The TGI in experiment [8], in experiment [14], in experiment [9], in [10], in experiment [11] and in [12] was over 10 µM each time.
